Test results: PubChem BioAssay (NCI)
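Step 1: Grow cells in 96-well plates. Step 2: Expose to compound for 48 hours at 5 concentrations. Step 3: Interpolate endpoints linearly; if unreached, use highest concentration. TGI is the concentration that stops growth completely.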

Legend:
Assay in all cases: NCI tumour cell line growth inhibition, 48 h
[1] = tested on: HOP-62 NSCLC
[2] = tested on: DU-145 prostate
[3] = tested on: OVCAR-3 ovarian
[4] = tested on: UACC-257 melanoma
[5] = tested on: KM12 colon
[6] = tested on: BT-549 breast
[7] = tested on: NCI-H23 lung
[8] = tested on: MCF7 breast
[9] = tested on: NCI-H226 lung
[10] = tested on: CAKI-1 renal
[11] = tested on: SK-MEL-5 melanoma
[12] = tested on: M14 melanoma
[13] = tested on: SK-MEL-2 melanoma
[14] = tested on: SNB-19 CNS
[15] = tested on: LOX IMVI melanoma
[16] = tested on: T-47D breast
[17] = tested on: EKVX NSCLC
[18] = tested on: SF-295 CNS
[19] = tested on: RXF 393 renal
[20] = tested on: HCT-15 colon
[21] = tested on: SK-MEL-28 melanoma
[22] = tested on: MDA-MB-231 breast
[23] = tested on: SNB-75 CNS
[24] = tested on: SK-OV-3 ovarian
[25] = tested on: HCC-2998 colon
[26] = tested on: K-562 leukemia
[27] = tested on: A549 NSCLC
[28] = tested on: SR leukemia
[29] = tested on: 786-0 renal
[30] = tested on: CCRF-CEM leukemia
[31] = tested on: SN12C renal
[32] = tested on: OVCAR-8 ovarian
[33] = tested on: TK-10 renal
[34] = tested on: NCI-H522 lung
[35] = tested on: ACHN renal
[36] = tested on: NCI-H460 lung
[37] = tested on: PC-3 prostate
[38] = tested on: IGROV1 ovarian
[39] = tested on: HT29 colon
[40] = tested on: COLO 205 colon
[41] = tested on: A498 renal
[42] = tested on: SF-539 CNS
[43] = tested on: MALME-3M melanoma
[44] = tested on: RPMI-8226 leukemia
[45] = tested on: HL-60(TB) leukemia
[46] = tested on: UACC-62 melanoma
[47] = tested on: OVCAR-4 ovarian
[48] = tested on: OVCAR-5 ovarian
[49] = tested on: UO-31 renal
[50] = tested on: HS 578T breast
[51] = tested on: HOP-92 NSCLC
[52] = tested on: U251 CNS
[53] = tested on: MDA-MB-435
[54] = tested on: HCT-116 colon
[55] = tested on: NCI/ADR-RES ovarian
[56] = tested on: SF-268 CNS
[57] = tested on: MOLT-4 leukemia
[58] = tested on: SW-620 colon

Which TGI [1] does the source give for `CCOC(=O)/C=C\[C@H]1OC(C)(C)O[C@H]1[C@H](O)[C@H]1COC(C)(C)O1` here?
The TGI was greater than 100 µM.

And the TGI [2]?
Its TGI is greater than 100 µM.

What about the TGI [3] of the same molecule?
Its TGI is 32.2 µM.

What about the TGI [4] of the same molecule?
Its TGI is 55.5 µM.

What about the TGI [5] of the same molecule?
Its TGI is greater than 100 µM.

What about the TGI [6] of the same molecule?
Its TGI is 42.2 µM.

What about the TGI [7] of the same molecule?
The TGI was 50.1 µM.

And the TGI [8]?
The TGI was 40.7 µM.

And the TGI [9]?
The TGI was greater than 100 µM.

And the TGI [10]?
Its TGI is 7.88 µM.

What about the TGI [11] of the same molecule?
Its TGI is 33.5 µM.

What about the TGI [12] of the same molecule?
The TGI was 33 µM.

What about the TGI [13] of the same molecule?
The TGI was 52.4 µM.

What about the TGI [14] of the same molecule?
The TGI was greater than 100 µM.

What about the TGI [15] of the same molecule?
The TGI was 39.9 µM.

And the TGI [16]?
Its TGI is 46.7 µM.

And the TGI [17]?
The TGI was 50.1 µM.

And the TGI [18]?
The TGI was greater than 100 µM.

And the TGI [19]?
The TGI was 35 µM.

What about the TGI [20] of the same molecule?
Its TGI is 33.1 µM.

And the TGI [21]?
Its TGI is 35.6 µM.

What about the TGI [22] of the same molecule?
The TGI was 33.9 µM.

What about the TGI [23] of the same molecule?
Its TGI is 13.3 µM.

And the TGI [24]?
Its TGI is greater than 100 µM.

And the TGI [25]?
Its TGI is 28.6 µM.

What about the TGI [26] of the same molecule?
The TGI was 44.7 µM.

What about the TGI [27] of the same molecule?
Its TGI is greater than 100 µM.

And the TGI [28]?
The TGI was 37.2 µM.

What about the TGI [29] of the same molecule?
The TGI was 39.2 µM.

What about the TGI [30] of the same molecule?
The TGI was 39 µM.

What about the TGI [31] of the same molecule?
The TGI was 33.5 µM.

And the TGI [32]?
Its TGI is greater than 100 µM.

And the TGI [33]?
Its TGI is 30.8 µM.

What about the TGI [34] of the same molecule?
The TGI was 29.7 µM.

What about the TGI [35] of the same molecule?
The TGI was 32.6 µM.

And the TGI [36]?
Its TGI is greater than 100 µM.

And the TGI [37]?
Its TGI is 37.6 µM.

And the TGI [38]?
Its TGI is 37.7 µM.

And the TGI [39]?
The TGI was 46.1 µM.

What about the TGI [40] of the same molecule?
Its TGI is 32.3 µM.

And the TGI [41]?
Its TGI is 37.6 µM.

What about the TGI [42] of the same molecule?
Its TGI is 32.1 µM.

What about the TGI [43] of the same molecule?
The TGI was 41.7 µM.

And the TGI [44]?
The TGI was 42.3 µM.

And the TGI [45]?
The TGI was 62.4 µM.

And the TGI [46]?
The TGI was 60.7 µM.

And the TGI [47]?
Its TGI is 46.5 µM.

And the TGI [48]?
Its TGI is 32.6 µM.

What about the TGI [49] of the same molecule?
The TGI was 34.4 µM.

And the TGI [50]?
Its TGI is 93.2 µM.

What about the TGI [51] of the same molecule?
The TGI was 31.3 µM.

And the TGI [52]?
Its TGI is 32.6 µM.

And the TGI [53]?
The TGI was 35 µM.

What about the TGI [54] of the same molecule?
The TGI was 39 µM.

And the TGI [55]?
Its TGI is greater than 100 µM.

And the TGI [56]?
The TGI was 72.6 µM.

And the TGI [57]?
The TGI was 40.5 µM.

What about the TGI [58] of the same molecule?
The TGI was 36.8 µM.
